Laboratory results as given in ChEMBL document CHEMBL1134077, “Synthesis of potent and selective dopamine D(4) antagonists as candidate radioligands” (Bioorg Med Chem Lett, 2001).

Legend:
[1] = biological target: 5-hydroxytryptamine receptor 7 (Homo sapiens, UniProt P34969); assay: In vitro binding affinity to human 5-hydroxytryptamine 7 receptor
[2] = biological target: 5-hydroxytryptamine receptor 2A (Homo sapiens, UniProt P28223); assay: Binding affinity to cloned human 5-hydroxytryptamine 2A receptor
Sequence of 5-hydroxytryptamine receptor 2A (P28223 whole entry): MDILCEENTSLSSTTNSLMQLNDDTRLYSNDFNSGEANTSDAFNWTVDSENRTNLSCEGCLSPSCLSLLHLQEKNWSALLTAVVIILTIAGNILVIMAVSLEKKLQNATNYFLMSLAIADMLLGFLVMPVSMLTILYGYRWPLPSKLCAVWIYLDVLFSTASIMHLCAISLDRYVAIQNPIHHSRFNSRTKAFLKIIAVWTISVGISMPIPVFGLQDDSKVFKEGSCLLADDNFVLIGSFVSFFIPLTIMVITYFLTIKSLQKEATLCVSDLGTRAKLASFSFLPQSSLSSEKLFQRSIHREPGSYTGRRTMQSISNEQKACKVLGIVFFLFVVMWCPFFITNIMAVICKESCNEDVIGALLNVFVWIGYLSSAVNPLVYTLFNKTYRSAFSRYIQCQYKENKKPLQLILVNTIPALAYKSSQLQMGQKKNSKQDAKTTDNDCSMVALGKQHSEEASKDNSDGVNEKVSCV

D(4) dopamine receptor = biological target: T1, D(4) dopamine receptor (Rattus norvegicus, UniProt P30729); assay: In vitro binding affinity to rat Dopamine receptor D4 measured by displacement of the radioligand [3H]spiperone
T1 sequence (P30729 whole entry): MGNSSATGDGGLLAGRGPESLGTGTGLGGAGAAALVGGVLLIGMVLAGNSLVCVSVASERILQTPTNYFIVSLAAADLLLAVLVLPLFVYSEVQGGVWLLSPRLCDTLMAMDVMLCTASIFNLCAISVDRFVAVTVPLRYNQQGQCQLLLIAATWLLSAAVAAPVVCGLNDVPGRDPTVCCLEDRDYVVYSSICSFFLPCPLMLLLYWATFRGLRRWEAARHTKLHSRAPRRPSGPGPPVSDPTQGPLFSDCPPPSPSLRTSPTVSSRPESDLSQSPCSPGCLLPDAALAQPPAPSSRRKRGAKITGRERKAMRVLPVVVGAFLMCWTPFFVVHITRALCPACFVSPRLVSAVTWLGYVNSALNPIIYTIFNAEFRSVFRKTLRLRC

[3] = biological target: 5-hydroxytryptamine receptor 6 (Homo sapiens, UniProt P50406); assay: In vitro binding affinity to human 5-hydroxytryptamine 6 receptor
Sequence of 5-hydroxytryptamine receptor 6 (P50406 whole entry): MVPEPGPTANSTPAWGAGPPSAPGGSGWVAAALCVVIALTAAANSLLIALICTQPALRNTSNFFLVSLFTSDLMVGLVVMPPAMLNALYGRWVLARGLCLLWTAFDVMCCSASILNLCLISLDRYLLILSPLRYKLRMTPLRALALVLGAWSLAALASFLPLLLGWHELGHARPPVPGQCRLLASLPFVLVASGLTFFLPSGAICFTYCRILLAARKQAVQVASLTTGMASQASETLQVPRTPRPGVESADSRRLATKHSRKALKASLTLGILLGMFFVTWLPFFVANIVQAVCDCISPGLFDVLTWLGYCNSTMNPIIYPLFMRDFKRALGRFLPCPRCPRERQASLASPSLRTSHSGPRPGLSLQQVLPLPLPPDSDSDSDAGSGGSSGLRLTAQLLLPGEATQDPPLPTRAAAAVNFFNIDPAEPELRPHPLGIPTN

[4] = Binding affinity to cloned Nicotinic acetylcholine receptors; set-up: species or system Rattus norvegicus

Sequence of 5-hydroxytryptamine receptor 7 (P34969 whole entry): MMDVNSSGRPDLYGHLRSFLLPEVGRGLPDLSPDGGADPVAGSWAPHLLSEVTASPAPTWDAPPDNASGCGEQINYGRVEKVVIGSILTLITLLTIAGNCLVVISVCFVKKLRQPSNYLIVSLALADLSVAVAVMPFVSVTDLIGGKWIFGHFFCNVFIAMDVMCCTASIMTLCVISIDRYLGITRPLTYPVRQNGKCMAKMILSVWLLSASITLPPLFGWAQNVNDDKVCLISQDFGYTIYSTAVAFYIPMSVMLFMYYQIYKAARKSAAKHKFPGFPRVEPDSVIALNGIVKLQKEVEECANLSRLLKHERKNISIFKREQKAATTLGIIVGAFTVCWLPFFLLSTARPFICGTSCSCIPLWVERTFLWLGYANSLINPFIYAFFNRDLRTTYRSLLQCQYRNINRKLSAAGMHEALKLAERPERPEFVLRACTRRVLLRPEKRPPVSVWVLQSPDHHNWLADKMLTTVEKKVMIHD

| Structure (SMILES) | Ki [1] [nM] | Ki [2] [nM] | Ki (D(4) dopamine receptor) [nM] | Ki [3] [µM] | Ki [4] [µM] |
| --- | --- | --- | --- | --- | --- |
| FC(F)(F)c1ccc(N2CCN(Cc3c[nH]c4ncccc34)CC2)cc1 | 318 | 2790 | 34.1 | 7.11 |  |
| Clc1ccc(N2CCN(Cc3c[nH]c4ncccc34)CC2)cc1 [L-745870] |  |  |  |  | > 10 |
